Experiment [1] has as its target central benzodiazepine receptor. Conditions: radioligand of the kit; cited from earlier work.
In experiment [2] the test system is anxiety in the rat (elevated plus-maze). Briefly: Tranquilizing activity, elevated plus-maze test. To be noted: intraperitoneal, diazepam 2 mg/kg, hydrolysate 3 mg/kg. In kind it is in vivo. An excerpt:
To measure anxiety in the rat, the elevated plus-maze test described by Pellow et al. (14) was used which is based on neophobia in the rat. The plus-maze had four branches that were 50 cm long and 10 cm wide. The two closed branches were surrounded by walls that were 25 cm high (the top being left open for observation) and the entire maze was 50 cm above the ground. The center of the maze communicated with the two open arms and the two closed arms.
The number of times the animal enters the open arms, the closed arms, and the total number of times the rat enters the arms are important parameters. The time passed in each type of branch was also measured. Other parameters (a total of 22) such as the number of times the rat stood up, the number of times it groomed itself (signs of anxiety), or latency of first entry into an open or closed branch were taken into account. […] Its entire behavior was filmed by video camera, which procedure served to avoid errors.
The control group (CTR) received an intraperitoneal injection of solvent only, which solvent was a mixture of gelatin and mannitol (0.5%/5%) dissolved in water. […] The animals in all of the groups were injected half an hour before going to the plus-maze. To begin the experiments, each rat was placed in the center of the apparatus.

One may read the Ki as the equilibrium dissociation constant of an inhibitor or competing ligand from its target. In the case of `CN1C(=O)CN=C(c2ccccc2F)c2cc([N+](=O)[O-])ccc21` [^3 H-methyl-flunitrazepam], the Ki in experiment [1] is 1.2 nM.

Regarding `CN1C(=O)CN=C(c2ccccc2)c2cc(Cl)ccc21` [diazepam], in experiment [2], the “number of entries into closed branches” value is given as “did not vary significantly”. The “number of entries into open branches” value in experiment [2] (control 1.5±0.3) was determined as 3.0±0.4. The “time spent in the open branches” value in experiment [2] (control 19.3±4.4 s) is 70.1 ± 19.9 s.

Source of the values: US5846939A, “Use of a decapeptide with benzodiazepine-type activity for preparing medicines and food supplements” (Societe Cooperative Agricole Laitiere D'Artois Et Des …, priority 1994, dated 1998).
